In patent publication US9057727B2, “Screening methods using G-protein coupled receptors and related compositions” (The General Hospital Corporation, priority 2007, dated 2015):
Peptide text beside a SMILES is read from it.

Legend:
[1] = Calcemic action in normal rats (blood ionized calcium); assay type: in vivo; settings: normal and TPTX rats
Procedure: Binding to the rat PTHR was also measured in vitro.
Concentration of peptides in stock solution were adjusted by dilution with 25 mmol/L phosphate-citrate buffer/100 mmol/L NaCl/0.05% Tween 80 (pH. 5.0) (PC-buffer). All peptides were allowed to stand on ice immediately before administration.
Female SD-IGS rat at 8 weeks of age (Charles River Japan, Inc.) were measured for their body weight. Blood was collected by tail vein into heparinized capillary tubes and measured for baseline levels of blood ionized calcium and pH using Ca^++/pH analyzer (Model 634/Bayer Medical Ltd.) to give the corrected level of ionized calcium at pH 7.4 for each sample. Rats received intravenous administration of each peptides at a dose of 1 ml/kg. Peptides were administered to groups of 6 rats each respectively. At 1, 2, 4, or 6 hours after administration, blood was collected by tail vein to monitor the time course of corrected blood ionized calcium levels. The time course of changes in corrected ionized calcium levels, compared to vehicle, and are expressed as means+/−standard error.

[2] = target: T1, human PTH receptor (Homo sapiens, UniProt Q03431); assay: cAMP in HRKRK-B7 cells EC50 (nM)
T1 construct: expressed in transfected cells
From the text: Table printed on a drawing sheet, Figure 25
Head of the field: cAMP in HRKRK-B7 cells EC50 (nM)
First copying reader's note: The column head prints the cell line as HRKRK-B7 while the title prints HKRK-B7.

[3] = target: T2, hPTH1R (R0 form of the human PTH receptor) (Homo sapiens, UniProt Q03431); assay: R0 memb: hPTH1R*PTH( 1-34)+GTPgS
T2 construct: expressed in transfected cells; host or cells: COS-7, transient (Fugene-6)

[4] = target: hPTH1R (RG form of the human PTH receptor); assay: RG memb: hPTH1R+dnGS *M-PTH(1-15)
[5] = target: T3, ROS 17/2.8 cells (endogenous rat PTHR) (Rattus norvegicus, UniProt P25961); assay: Acute cAMP response in ROS 17/2.8 rat osteoblastic cells; assay type: cell-based; settings: 10^−7 M, hPTH(1-28) 10^−6 M, basal 3.7±0.4
T3 construct: the rat osteoblastic cell line ROS17/2.8, which endogenously expresses the rat PTHR; endogenous in cells; host or cells: ROS 17/2.8 rat osteosarcoma cells (membranes or intact cells)
T3 sequence (P25961 27-591): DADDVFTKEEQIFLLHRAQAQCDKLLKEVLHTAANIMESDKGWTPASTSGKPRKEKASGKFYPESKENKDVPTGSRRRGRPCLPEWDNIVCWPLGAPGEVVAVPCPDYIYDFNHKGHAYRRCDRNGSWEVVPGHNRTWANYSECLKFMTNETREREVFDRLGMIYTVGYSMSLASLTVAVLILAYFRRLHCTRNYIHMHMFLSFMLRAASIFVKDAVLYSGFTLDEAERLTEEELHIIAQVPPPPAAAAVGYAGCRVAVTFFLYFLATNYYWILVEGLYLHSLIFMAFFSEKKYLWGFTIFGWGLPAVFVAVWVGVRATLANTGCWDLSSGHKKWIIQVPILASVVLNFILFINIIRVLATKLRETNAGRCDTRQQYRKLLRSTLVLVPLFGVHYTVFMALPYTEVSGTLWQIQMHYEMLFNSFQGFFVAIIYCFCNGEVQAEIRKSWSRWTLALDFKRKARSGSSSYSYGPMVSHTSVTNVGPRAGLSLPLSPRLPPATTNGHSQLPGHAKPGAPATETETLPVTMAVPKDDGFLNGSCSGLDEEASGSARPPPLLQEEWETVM

[6] = Plasma cAMP in mice after subcutaneous injection; assay type: in vivo
Procedure: FIGS. 9A-9D are graphs showing in vivo plasma cAMP levels in mice treated with PTH analogs. Wild-type mice were injected subcutaneously with vehicle (0.9% NaCl/0.05% Tween-20), or vehicle containing a PTH peptide at a dose-level of 10 to 1,000 nmol of peptide per kg of body weight, and at indicated times after injection, blood was withdrawn from the tail vein, and the amount of cAMP in the resulting plasma was quantified by radioimmuno assay. Each curve corresponds to a peptide at a defined concentration, as indicated in the graph keys. The plasma cAMP concentrations are plotted as picomole per μl plasma.
(§1) Wild-type mice were injected subcutaneously with vehicle (0.9% NaCl/0.05% Tween-20), or vehicle containing a PTH peptide so as to achieve a concentration ranging from 10 to 1000 nmol/kg of body weight. At the indicated times after injection, blood was withdrawn from the tail vein, and the amount of cAMP in the resulting plasma was quantified by radioimmuno assay (FIGS. 9A-9D).
as §1, with “at” for “so as to achieve”, “dose level of” for “concentration ranging from”, “At” for “At the”, “assay. Ionized calcium in serum was measured as above and phosphate was measured by a U.V. spectroscopic kit assay.” for “assay (FIGS. 9A-9D).”

T2 sequence (Q03431 27-593 limits assumed): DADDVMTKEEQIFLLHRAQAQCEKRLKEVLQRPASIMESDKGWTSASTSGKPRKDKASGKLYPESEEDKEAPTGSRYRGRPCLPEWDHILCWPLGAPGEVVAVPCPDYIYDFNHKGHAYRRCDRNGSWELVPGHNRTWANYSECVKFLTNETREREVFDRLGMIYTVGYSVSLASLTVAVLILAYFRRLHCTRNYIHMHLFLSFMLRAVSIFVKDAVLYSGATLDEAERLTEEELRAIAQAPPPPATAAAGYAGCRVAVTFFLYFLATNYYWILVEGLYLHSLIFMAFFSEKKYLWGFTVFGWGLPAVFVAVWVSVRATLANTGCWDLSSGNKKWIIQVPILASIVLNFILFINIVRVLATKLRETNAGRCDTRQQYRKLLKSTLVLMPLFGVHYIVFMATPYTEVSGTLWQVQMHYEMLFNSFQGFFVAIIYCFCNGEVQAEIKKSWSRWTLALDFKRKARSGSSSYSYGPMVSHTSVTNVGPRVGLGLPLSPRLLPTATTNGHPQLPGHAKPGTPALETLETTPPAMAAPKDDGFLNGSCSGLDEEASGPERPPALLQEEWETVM
T1 sequence (Q03431 27-593 limits assumed): as above

| EC50 [2] | IC50 [3] | IC50 [4] | maximum cAMP response (ligand with IBMX 10 minutes, no wash-out) [5] | Structure (SMILES) | calcemic action compared with control peptides, in words [1] | dose producing comparable increase in plasma cAMP [6] |
| --- | --- | --- | --- | --- | --- | --- |
| 0.89 nM | 16.8 nM | 0.22 nM | – | CC[C@H](C)[C@H](NC(=O)[C@H](CCC(=O)O)NC(=O)[C@H](C)NC(=O)[C@@H](NC(=O)[C@H](Cc1c[nH]cn1)NC(=O)[C@@H](NC(=O)[C@H](CCC(=O)O)NC(=O)[C@H](C)NC(=O)[C@@H](NC(=O)[C@H](CC(C)C)NC(=O)[C@H](Cc1c[nH]cn1)NC(=O)[C@H](Cc1c[nH]cn1)NC(=O)[C@H](CC(C)C)NC(=O)[C@H](Cc1ccccc1)NC(=O)[C@H](CCC(=O)O)NC(=O)[C@@H](NC(=O)[C@H](CCCNC(=N)N)NC(=O)[C@H](CCC(=O)O)NC(=O)[C@H](CCSC)NC(=O)[C@H](CO)NC(=O)[C@H](CC(N)=O)NC(=O)[C@H](CC(C)C)NC(=O)[C@H](Cc1c[nH]cn1)NC(=O)[C@H](CCCCN)NC(=O)CNC(=O)[C@H](CC(C)C)NC(=O)[C@H](CC(N)=O)NC(=O)[C@H](Cc1c[nH]cn1)NC(=O)[C@H](CCSC)NC(=O)[C@H](CC(C)C)NC(=O)[C@H](CCC(N)=O)NC(=O)[C@@H](NC(=O)[C@H](CCC(=O)O)NC(=O)[C@H](CO)NC(=O)[C@@H](NC(=O)[C@@H](N)CO)C(C)C)[C@@H](C)CC)C(C)C)[C@@H](C)CC)[C@@H](C)CC)[C@@H](C)O)C(=O)O [PTH(1-22)/PTHrP(23-36)] (H-SVSEIQLMHNLGKHLNSMERVEFLHHLIAEIHTAEI-OH) | weaker calcemic actions than did either PTH(1-34) or PTHrP(1-36) control peptides | – |
| 1.07 nM | 7.9 nM | 0.31 nM | – | CC[C@H](C)[C@H](NC(=O)[C@H](CCC(=O)O)NC(=O)[C@H](C)NC(=O)[C@@H](NC(=O)[C@H](Cc1c[nH]cn1)NC(=O)[C@@H](NC(=O)[C@H](CCC(=O)O)NC(=O)[C@H](C)NC(=O)[C@@H](NC(=O)[C@H](CC(C)C)NC(=O)[C@H](CCCCN)NC(=O)[C@H](CCCNC(=N)N)NC(=O)[C@H](CC(C)C)NC(=O)[C@H](Cc1c[nH]c2ccccc12)NC(=O)[C@H](CCC(=O)O)NC(=O)[C@@H](NC(=O)[C@H](CCCNC(=N)N)NC(=O)[C@H](CCC(=O)O)NC(=O)[C@H](CCSC)NC(=O)[C@H](CO)NC(=O)[C@H](CC(N)=O)NC(=O)[C@H](CC(C)C)NC(=O)[C@H](Cc1c[nH]cn1)NC(=O)[C@H](CCCCN)NC(=O)CNC(=O)[C@H](CC(C)C)NC(=O)[C@H](CC(N)=O)NC(=O)[C@H](Cc1c[nH]cn1)NC(=O)[C@H](CCSC)NC(=O)[C@H](CC(C)C)NC(=O)[C@H](CCC(N)=O)NC(=O)[C@@H](NC(=O)[C@H](CCC(=O)O)NC(=O)[C@H](CO)NC(=O)[C@@H](NC(=O)[C@@H](N)CO)C(C)C)[C@@H](C)CC)C(C)C)[C@@H](C)CC)[C@@H](C)CC)[C@@H](C)O)C(=O)O [PTH(1-26)/PTHrP(27-36), hPTH(1-26)/PTHrP(27-36)] (H-SVSEIQLMHNLGKHLNSMERVEWLRKLIAEIHTAEI-OH) | weaker calcemic actions than did either PTH(1-34) or PTHrP(1-36) control peptides | – |
| – | – | – | 68±3 pmole/well | CC[C@H](C)[C@H](NC(=O)[C@H](CCC(=O)O)NC(=O)[C@H](CO)NC(=O)[C@@H](NC(=O)[C@@H](N)CO)C(C)C)C(=O)N[C@@H](CCC(N)=O)C(=O)N[C@@H](CC(C)C)C(=O)N[C@@H](CCSC)C(=O)N[C@@H](Cc1c[nH]cn1)C(=O)N[C@@H](CC(N)=O)C(=O)N[C@@H](CC(C)C)C(=O)NCC(=O)N[C@@H](CCCCN)C(=O)N[C@@H](Cc1c[nH]cn1)C(=O)N[C@@H](CC(C)C)C(=O)N[C@@H](CC(N)=O)C(=O)N[C@@H](CO)C(=O)N[C@@H](CCSC)C(=O)N[C@@H](CCC(=O)O)C(=O)N[C@@H](CCCNC(=N)N)C(=O)N[C@H](C(=O)N[C@@H](CCC(=O)O)C(=O)N[C@@H](Cc1c[nH]c2ccccc12)C(=O)N[C@@H](CC(C)C)C(=O)N[C@@H](CCCNC(=N)N)C(=O)N[C@@H](CCCCN)C(=O)N[C@@H](CCCCN)C(=O)N[C@@H](CC(C)C)C(N)=O)C(C)C [hPTH(1-28)NH2] (H-SVSEIQLMHNLGKHLNSMERVEWLRKKL-NH2; N-terminus assumed) | – | 1,000 nmol/kg |
| – | – | – | 67±6 pmole/well | CC[C@H](C)[C@H](NC(=O)[C@H](CCC(=O)O)NC(=O)[C@H](CO)NC(=O)[C@@H](NC(=O)[C@@H](N)CO)C(C)C)C(=O)N[C@@H](CCC(N)=O)C(=O)N[C@@H](CC(C)C)C(=O)N[C@@H](CCSC)C(=O)N[C@@H](Cc1c[nH]cn1)C(=O)N[C@@H](CC(N)=O)C(=O)N[C@@H](CC(C)C)C(=O)NCC(=O)N[C@@H](CCCCN)C(=O)N[C@@H](Cc1c[nH]cn1)C(=O)N[C@@H](CC(C)C)C(=O)N[C@@H](CC(N)=O)C(=O)N[C@@H](CO)C(=O)N[C@@H](CCSC)C(=O)N[C@@H](CCC(=O)O)C(=O)N[C@@H](CCCNC(=N)N)C(=O)N[C@H](C(=O)N[C@@H](CCC(=O)O)C(=O)N[C@@H](Cc1c[nH]c2ccccc12)C(=O)N[C@@H](CC(C)C)C(=O)N[C@@H](CCCNC(=N)N)C(=O)N[C@@H](CCCCN)C(=O)N[C@@H](CCCCN)C(=O)N[C@@H](CC(C)C)C(=O)N[C@@H](CCC(N)=O)C(=O)N[C@@H](CC(=O)O)C(=O)N[C@H](C(=O)N[C@@H](Cc1c[nH]cn1)C(=O)N[C@@H](CC(N)=O)C(=O)N[C@@H](Cc1ccccc1)C(N)=O)C(C)C)C(C)C [hPTH(1-34)NH2] | – | 50 nmol/kg |
